ChEMBL document CHEMBL5728996 (2022)

Columns and labels:
Adenosine receptor A1 = molecular target: T1, Adenosine receptor A1 (Homo sapiens, UniProt P30542); experiment: (§1) Activity Assay: Compounds (Adenosine Receptor modulators) and activity assay.
T1 sequence (P30542 whole entry): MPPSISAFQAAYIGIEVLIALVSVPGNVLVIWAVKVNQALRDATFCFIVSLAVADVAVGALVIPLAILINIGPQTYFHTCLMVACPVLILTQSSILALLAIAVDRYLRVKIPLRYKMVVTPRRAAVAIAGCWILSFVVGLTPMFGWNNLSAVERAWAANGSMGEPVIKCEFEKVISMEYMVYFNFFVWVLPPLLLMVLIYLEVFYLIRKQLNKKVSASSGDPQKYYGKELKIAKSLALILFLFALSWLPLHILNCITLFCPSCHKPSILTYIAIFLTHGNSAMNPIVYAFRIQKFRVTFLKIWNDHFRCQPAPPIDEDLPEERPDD

Adenosine receptor A2b = molecular target: T2, Adenosine receptor A2b (Homo sapiens, UniProt P29275); experiment: as §1
T2 sequence (P29275 whole entry): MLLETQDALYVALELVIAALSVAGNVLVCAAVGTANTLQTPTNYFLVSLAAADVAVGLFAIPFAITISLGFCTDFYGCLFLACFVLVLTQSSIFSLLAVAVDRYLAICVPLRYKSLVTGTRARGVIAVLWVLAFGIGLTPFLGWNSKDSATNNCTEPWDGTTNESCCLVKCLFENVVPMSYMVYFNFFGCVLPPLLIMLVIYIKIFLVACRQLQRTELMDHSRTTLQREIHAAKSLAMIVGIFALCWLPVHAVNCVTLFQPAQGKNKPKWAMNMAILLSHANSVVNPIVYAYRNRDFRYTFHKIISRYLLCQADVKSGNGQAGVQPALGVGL

Adenosine receptor A3 = molecular target: T3, Adenosine receptor A3 (Homo sapiens, UniProt P0DMS8); experiment: as §1
T3 sequence (P0DMS8 whole entry): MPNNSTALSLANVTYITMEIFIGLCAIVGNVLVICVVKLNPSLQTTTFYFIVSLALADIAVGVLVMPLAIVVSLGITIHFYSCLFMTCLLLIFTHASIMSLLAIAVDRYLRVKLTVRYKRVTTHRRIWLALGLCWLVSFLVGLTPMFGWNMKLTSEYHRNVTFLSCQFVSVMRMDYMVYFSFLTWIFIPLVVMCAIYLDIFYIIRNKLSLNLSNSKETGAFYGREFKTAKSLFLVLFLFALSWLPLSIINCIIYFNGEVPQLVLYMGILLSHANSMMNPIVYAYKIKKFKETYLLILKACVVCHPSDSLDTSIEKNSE

Adenosine receptor A2a = Adenosine receptor A2a (Homo sapiens, UniProt P29274); experiment: as §1; type: single protein
Sequence of Adenosine receptor A2a (P29274 whole entry): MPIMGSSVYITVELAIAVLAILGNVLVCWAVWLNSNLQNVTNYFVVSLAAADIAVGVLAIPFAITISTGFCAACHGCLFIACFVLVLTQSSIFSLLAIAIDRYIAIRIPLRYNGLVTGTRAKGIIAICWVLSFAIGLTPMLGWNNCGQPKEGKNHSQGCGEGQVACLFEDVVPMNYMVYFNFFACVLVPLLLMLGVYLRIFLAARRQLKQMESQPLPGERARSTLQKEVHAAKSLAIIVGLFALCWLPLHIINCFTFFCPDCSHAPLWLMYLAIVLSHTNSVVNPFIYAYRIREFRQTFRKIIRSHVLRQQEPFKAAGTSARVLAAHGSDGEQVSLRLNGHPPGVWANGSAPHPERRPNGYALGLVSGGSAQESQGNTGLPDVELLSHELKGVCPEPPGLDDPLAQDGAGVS

| SMILES | IC50 (Adenosine receptor A1) | IC50 (Adenosine receptor A2b) | IC50 (Adenosine receptor A3) | IC50 (Adenosine receptor A2a) |
| --- | --- | --- | --- | --- |
| C[C@H](Nc1nc(C(=O)N[C@H]2CC[C@@H](O)C2)c2sccc2n1)c1ccccn1 | > 500 nM | < 10 nM | > 500 nM | – |
| CCC(Nc1nc(C(=O)NCc2ccc(OC)nc2)c2sccc2n1)c1cccnc1 (configuration not stated) | – | > 500 nM | – | – |
| COCCN1CCC(CNC(=O)c2nc(N[C@@H](C)c3ccccn3)nc3ccsc23)CC1 | – | > 500 nM | – | > 500 nM |
| COc1ccc(CNC(=O)c2nc(NCc3cncc(F)c3)nc3ccsc23)cn1 | > 500 nM | – | > 500 nM | – |
| C[C@H](Nc1nc(C(=O)N2CC[C@@H](S(C)(=O)=O)C2)c2sccc2n1)c1ccccn1 | – | – | – | > 500 nM |
| CC(C)(C)OC(=O)N1CCC[C@@H]1CNC(=O)c1nc(NCc2cncc(F)c2)nc2ccsc12 | – | > 500 nM | – | > 500 nM |
| O=C(c1nc(NCc2ccc(F)cn2)nc2ccsc12)N1CC[C@H](O)C1 | – | > 500 nM | – | > 500 nM |
| CC(=O)Nc1ccc(CCNC(=O)c2nc(N[C@@H](C)c3cccnc3)nc3cc(C)sc23)cc1 | > 500 nM | – | – | > 500 nM |
| C[C@H](Nc1nc(C(=O)N2CC[C@@H](NC(=O)OC(C)(C)C)C2)c2sccc2n1)c1ccccn1 | > 500 nM | – | > 500 nM | – |

Other lines, results leading:

| IC50 (Adenosine receptor A1) | IC50 (Adenosine receptor A2b) | IC50 (Adenosine receptor A3) | IC50 (Adenosine receptor A2a) | SMILES |
| --- | --- | --- | --- | --- |
| – | < 10 nM | – | – | C[C@H](Nc1nc(C(=O)NCCc2ccccc2O)c2sccc2n1)c1cncc(F)c1 |
| > 500 nM | – | > 500 nM | > 500 nM | CC(=O)Nc1ccc(CCNC(=O)c2nc(N[C@@H](C)c3cncc(F)c3)nc3ccsc23)cc1 |
| > 500 nM | < 10 nM | > 500 nM | – | O=C(c1nc(NCc2cncc(F)c2)nc2ccsc12)N1CCCC1 |
| > 500 nM | – | > 500 nM | > 500 nM | C[C@H](Nc1nc(C(=O)N2CC(CN)C2)c2sccc2n1)c1cncc(F)c1 |
| > 500 nM | – | > 500 nM | – | C[C@H](Nc1nc(C(=O)NCCO)c2sccc2n1)c1cccnc1 |
| > 500 nM | – | > 500 nM | > 500 nM | C[C@H](Nc1nc(C(=O)N2CC(N)C2)c2sccc2n1)c1cncc(F)c1 |
